# What was measured:
# Type in all cases: cell-based
# PLK1 = target: T1, PLK1 (Homo sapiens, UniProt P53350); experiment: Luciferase assay for PLK1 in HeLa LgBit (Plk1-HiBit KI) cell line; details: 300 nM compound, luminescence after 9 hours, read-out: Activity: ratio of the luminescense value of compound treatment group to DMSO treatment group
# T1 construct: endogenous in cells; host or cells: HeLa LgBit (Plk1-HiBit KI): HeLa cells stably expressing LgBit, with HiBit knocked into the endogenous Plk1 locus by CRISPR/Cas9
# T1 sequence (P53350 whole entry): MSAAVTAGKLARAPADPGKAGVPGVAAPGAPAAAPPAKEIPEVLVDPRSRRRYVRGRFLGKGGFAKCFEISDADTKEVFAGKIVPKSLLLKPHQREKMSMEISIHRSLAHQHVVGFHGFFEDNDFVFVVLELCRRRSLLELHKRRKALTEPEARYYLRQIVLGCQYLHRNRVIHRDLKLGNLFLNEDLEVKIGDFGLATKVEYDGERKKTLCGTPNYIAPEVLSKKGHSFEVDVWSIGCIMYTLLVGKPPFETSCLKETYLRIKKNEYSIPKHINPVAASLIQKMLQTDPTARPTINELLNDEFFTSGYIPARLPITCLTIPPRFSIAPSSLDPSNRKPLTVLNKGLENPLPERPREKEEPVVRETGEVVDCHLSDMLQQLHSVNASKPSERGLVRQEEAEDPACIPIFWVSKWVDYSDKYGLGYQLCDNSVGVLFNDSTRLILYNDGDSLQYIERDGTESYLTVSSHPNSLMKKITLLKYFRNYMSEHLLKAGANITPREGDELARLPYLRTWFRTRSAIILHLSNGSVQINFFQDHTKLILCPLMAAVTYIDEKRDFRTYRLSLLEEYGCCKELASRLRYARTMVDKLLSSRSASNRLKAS
# Procedure: 2. Luciferase Assay for PLK1
# (1) Preparation and Culture of HeLa LgBit (Plk1-HiBit KI) Cell Line
# A HeLa cell line in which the LgBit vector was transfected and expressed stably was prepared. Then, after constructing gRNA and donor to express the HiBit amino acid sequence behind the C-terminal of the Plk1 gene, which was inherent in the cell, it was inserted into the cell together with a vector capable of expressing CRISPR/Cas9. Only the cells in which the insertion was completed and knock-in had progressed were selected, sub-cultured and used.
# (2) Treatment of Compounds of the Present Invention and Method of Luciferase Assay
# In the case of HeLa LgBit (Plk1-HiBit KI), the compounds were treated after being released after thymidine block, and the process was as follows. Thymidine (Sigma-Aldrich Cat. No. T9250-5G) was completely dissolved in DW and used in the experiment. For thymidine block, the products were treated with 2 mM of thymidine and then incubated for 24 hours. For release and chemical treatment, the medium was suctioned and washed with 1×PBS. TrypLE™ was added and incubated in 37° C. CO2 incubator for 5 min. Cells neutralized by adding complete media were counted through a counter. For each well of a 96-well culture plate (SPL), 3.3×10^4 cells and a total medium volume of 150 μL were seeded and incubated in a CO2 incubator.
# Each cell line was incubated in a CO2 incubator for 18 hours, and Endurazine was added to each well to make up 4% of the total volume. After adding the compound of the present invention in a 96-well white plate (SPL) to a concentration of 300 nM, the wavelength of the plate reader (BMG Labtech, CLARIOstar Plus) was set to […], and then the luminescence was tracked in real time.
# In Table 2, Activity represents the ratio of the luminescense value of each Exemplary Compound treatment group to DMSO treatment group (+++: <0.3, ++<0.6, +<0.7).
# NCI-H526 cell line = experiment: Cell viability assay for H526 cell line; details: Homo sapiens, NCI-H526, 120 h; H526 cells, 5 days, EZ-Cytox, 3000 nM to 0.46 nM
# Procedure: 3. Cell Viability Assay for H526 Cell Line
# (1) Culture of NCI-H526 Cell Line
# (2) Treatment of Compounds of the Present Invention and Method of Cell Viability Assay
# After treating the compound to each well to make the total volume of 200 μL, it was cultured in a CO2 incubator (Thermo Fisher Science, Cat. No. 4111) for 5 days.
# The absorbance of the completely cultured sample was measured by setting the wavelength of a plate reader (BMG Labtech, CLARIOstar Plus) to […], and was measured after shaking for 3 minutes in a plate reader before measurement.
# In Table 3, Activity represents IC50 value of each Exemplary Compound treatment group to H526 cell line (A: <30 nM, B: <50 nM, C: <100 nM, D: <200 nM, E: <400 nM).
# MRC-5 cell line = experiment: Cell viability assay (cytotoxicity) for MRC-5 cell line; details: Homo sapiens, MRC5, 120 h; MRC-5 normal cell line, 5 days, EZ-Cytox, 10000 nM to 1.52 nM; read-out: Activity: IC50 value to MRC-5 cell line (Exemplary Compounds)
# Procedure: 4. Cell Viability Assay for MRC-5 Cell Line
# (1) Culture of MRC-5 Cell Line
# Passage of cultured cells was maintained within P15.
# (2) Treatment of Compounds of the Present Invention
# Then, it was cultured in 37° C.
# (3) Cytotoxicity Experiment
# CO2 incubator for 4 hours.
# Cell Viability Assay for MRC-5 cell line
SMILES,remaining activity at 0.3 µM (PLK1) [%],IC50 (NCI-H526 cell line) [µM],IC50 (MRC-5 cell line) [µM]
"COc1cc(C(=O)NC2CCN(C(=O)CCN3CCN(c4ccc(C5CCC(=O)NC5=O)cc4)CC3)CC2)ccc1Nc1ncc2c(n1)N(C1CCCC1)CC(F)(F)C(=O)N2C (stereo not drawn) [Compound 5, 4-((9-cyclopentyl-7,7-difluoro-5-methyl-6-oxo-6,7,8,9-tetrahydro-5H-pyrimido[4,5-b][1,4]diazepin-2-yl)amino)-N-(1-(3-(4-(4-(2,6-dioxopiperidin-3-yl)phenyl)piperazin-1-yl)propanoyl)piperidin-4-yl)-3-methoxybenzamide]",< 60,< 0.03,> 10
"COc1cc(C(=O)NC2CCN(C(=O)CCN3CCN(c4cccc(C5CCC(=O)NC5=O)c4)CC3)CC2)ccc1Nc1ncc2c(n1)N(C1CCCC1)CC(F)(F)C(=O)N2C (stereo not drawn) [Compound 6, 4-((9-cyclopentyl-7,7-difluoro-5-methyl-6-oxo-6,7,8,9-tetrahydro-5H-pyrimido[4,5-b][1,4]diazepin-2-yl)amino)-N-(1-(3-(4-(3-(2,6-dioxopiperidin-3-yl)phenyl)piperazin-1-yl)propanoyl)piperidin-4-yl)-3-methoxybenzamide]",< 60,< 0.03,> 10
"COc1cc(C(=O)NC2CCC(N(C)CC3CCN(c4ccc(C5CCC(=O)NC5=O)cc4F)CC3)CC2)ccc1Nc1ncc2c(n1)N(C1CCCC1)CC(F)(F)C(=O)N2C (stereo not drawn) [Compound 7, 4-((9-cyclopentyl-7,7-difluoro-5-methyl-6-oxo-6,7,8,9-tetrahydro-5H-pyrimido[4,5-b][1,4]diazepin-2-yl)amino)-N-((1r,4r)-4-(((1-(4-(2,6-dioxopiperidin-3-yl)-2-fluorophenyl)piperidin-4-yl)methyl)(methyl)amino)cyclohexyl)-3-methoxybenzamide]",< 30,< 0.03,> 10

# Continued, in another order:
remaining activity at 0.3 µM (PLK1) [%],SMILES,IC50 (NCI-H526 cell line) [µM],IC50 (MRC-5 cell line) [µM]
< 60,"COc1cc(C(=O)NC2CCN(C(=O)CCCOc3ccc(C4CCC(=O)NC4=O)cc3)CC2)c(F)cc1Nc1ncc2c(n1)N(C1CCCC1)CC(F)(F)C(=O)N2C (stereo not drawn) [Compound 3, 4-((9-cyclopentyl-7,7-difluoro-5-methyl-6-oxo-6,7,8,9-tetrahydro-5H-pyrimido[4,5-b][1,4]diazepin-2-yl)amino)-N-(1-(4-(4-(2,6-dioxopiperidin-3-yl)phenoxy)butanoyl)piperidin-4-yl)-2-fluoro-5-methoxybenzamide]",< 0.1,> 10
< 30,"COc1cc(C(=O)NC2CCN(C(=O)CCCOc3cccc(C4CCC(=O)NC4=O)c3)CC2)ccc1Nc1ncc2c(n1)N(C1CCCC1)CC(F)(F)C(=O)N2C (stereo not drawn) [Compound 4, 4-((9-cyclopentyl-7,7-difluoro-5-methyl-6-oxo-6,7,8,9-tetrahydro-5H-pyrimido[4,5-b][1,4]diazepin-2-yl)amino)-N-(1-(4-(3-(2,6-dioxopiperidin-3-yl)phenoxy)butanoyl)piperidin-4-yl)-3-methoxybenzamide]",< 0.05,> 10
< 30,"COc1cc(C(=O)NC2CCC(CN(C)C3CCN(c4ccc(C5CCC(=O)NC5=O)cc4F)CC3)CC2)ccc1Nc1ncc2c(n1)N(C1CCCC1)CC(F)(F)C(=O)N2C (stereo not drawn) [Compound 8, 4-((9-cyclopentyl-7,7-difluoro-5-methyl-6-oxo-6,7,8,9-tetrahydro-5H-pyrimido[4,5-b][1,4]diazepin-2-yl)amino)-N-((1r,4r)-4-(((1-(4-(2,6-dioxopiperidin-3-yl)-2-fluorophenyl)piperidin-4-yl)(methyl)amino)methyl)cyclohexyl)-3-methoxybenzamide]",< 0.03,> 10

# From US11912710B2 (UPPTHERA, INC., priority 2021, dated 2024)
